Assay results as given in patent US10688099B2, “Methods for modulating the amount of RNA transcripts” (PTC Therapeutics, Inc., priority 2013, dated 2020).

Test system: human genes (total transcript abundance) in PNN 1-46 cells
Test: RNA sequencing, total transcript abundance at the gene level, Compound vs DMSO control
Type: cell-based
Description: PNN 1-46 cells derived from a Type I SMA patient were treated with Compound 702 at 500 nM for 24 hours. RNA was purified with the RNeasy Mini Kit (Qiagen) for mRNA sequencing on HiSeq 2500 (Illumina Inc., San Diego, Calif.). The quality of the total RNA was assessed using UV spectrophotometry and agarose gel electrophoresis. Template DNA molecules suitable for cluster generation were prepared from 1 ug of total RNA samples using the TruSeq RNA Sample Preparation Kit v2 (Illumina Inc., San Diego, Calif.) according to the manufacturer's instructions. The size distribution of the libraries was estimated by electrophoresis on Agilent High Sensitivity Bioanalyzer microfluidic chips. The minimum and average sizes of the amplified libraries were determined to be >200 nucleotides and 300-340 nucleotides, respectively. Libraries were quantified using the KAPA Library Quantification Kit (KK4824, Kapa Biosystems, Boston, Mass.). The libraries were pooled at equimolar concentrations and diluted prior to loading onto the flow cell of the HiSeq 2500 (Illumina Inc., San Diego, Calif.) for both clustering and sequencing. The libraries were extended and bridge-amplified to create single sequence clusters using the TruSeq Rapid PE Cluster Kit—HS (Illumina Inc., San Diego, Calif.). Amplified clusters in the flow cell were then sequenced with 50-bp paired-end reads using the TruSeq Rapid SBS Kit—HS (Illumina Inc., San Diego, Calif.) in rapid run mode. Real time image analysis and base calling were performed on the HiSeq 2500 instrument using the HiSeq Sequencing Control Software (HCS). […]
In order to estimate gene expression levels, paired-end RNAseq reads were subsequently mapped to RefSeq human transcripts (release 60) and the human genome (hg19) by using the short read aligner Bowtie2 (Langmead et al., 2012. Nature methods 9:357). The number of mapped reads for all transcript variants of a gene (counts) were combined into a single value and normalized denoted as rpkms (number of mapped reads per kilobase transcript per million sequenced reads, (Mortazavi et al., 2008. Nature methods 5:621)). The splice-site analysis was performed by mapping the paired-end RNASeq reads to RefSeq human transcripts using the alignment software GSNAP with default parameters and the option ‘sam-multiple-primaries’ in order to account for reads that were mapped multiple times to different splice variants. The number of reads spanning splice-sites was determined by applying the samtools mpileup software with default parameters for each transcript. Reads having an alignment start or end exactly on the splice-site were excluded from the analysis (Wu et al., 2005, Bioinformatics 21:1859; Wu et al., 2010, Bioinformatics 26:873; Li et al., 2009, Bioinformatics 25:2078). […]

`CCN1CCC(c2cc(C)c3nc(-c4cc5c(C)nc(C)cn5n4)cc(=O)n3c2)CC1` [Compound 702] was tested, and the “genes up- or downregulated, respectively, at threshold |Log2FC| 1” value (500 nM vs DMSO control, 11,714 human genes with rpkm >1, FIG. 2B) was “six”, the “change in total mRNA abundance of SMN2” value (500 nM vs DMSO control, PNN 1-46, 24 hours, FIG. 2A) was “no change” and the “Log2FC of total transcript expression of POLN (DNA polymerase nu)” value (500 nM vs DMSO control, only changed gene among the gene families of FIG. 3) was greater than 1. For the same molecule, the “deregulation in gene families involved in DNA or RNA metabolism or cell survival” value (500 nM, 24 hours, PNN 1-46, FIG. 3) was “No deregulation”.
